System: Corticium sasakii
Experiment: Activity against sheath blight on rice caused by Corticium sasakii (protective spray, rice plants cultivar Tai-Nong 67)
Type: in vivo
Conditions: individual active compound, evaluated after 11 days, untreated control 85% infection
Description: The active compounds, separately or jointly, were prepared as a stock solution comprising 0.25% by weight of active compound in acetone or DMSO. 1% by weight of the emulsifier Uniperol® EL (wetting agent having emulsifying and dispersing action based on ethoxylated alkylphenols) was added to this solution, and the mixture was appropriately diluted with water to the desired concentration.
Pots of rice plants of the cultivar “Tai-Nong 67” were sprayed to runoff point with an aqueous suspension having the concentration of active compound stated below. The next day, oat grains infected with Corticium sasakii were planted in the pots (in each case 5 grains per pot). The plants were then placed in a chamber at 26° C. and maximum atmospheric humidity. After 11 days, the sheath blight on the untreated but infected control plants had developed to such an extent that the infection could be determined visually in %.
Evaluation is carried out by determining the infected leaf areas in percent. These percentages were converted into efficacies.
The efficacy (E) is calculated as follows using Abbot's formula: E=(1−α/β)·100 • α corresponds to the fungal infection of the treated plants in % and • β corresponds to the fungal infection of the untreated (control) plants in %
An efficacy of 0 means that the infection level of the treated plants corresponds to that of the untreated control plants; an efficacy of 100 means that the treated plants are not infected.
The expected efficacies of the mixtures of active compounds are determined using Colby's formula [R. S. Colby, Weeds, 15, 20-22 (1967)] and are compared with the observed efficacies.
Colby's formula: E=x+y−x·y/100 • expected efficacy, expressed in % of the untreated control, when using the mixture of the active compounds A and B at the concentrations a and b • x efficacy, expressed in % of the untreated control, when using the active compound A at the concentration a
y efficacy, expressed in % of the untreated control, when using the active compound B at the concentration b

**Q.** Which “Efficacy in % of the untreated control” value (4 ppm in the spray liquor) does the source give for `CC1CCN(c2c(-c3c(F)cc(F)cc3F)c(Cl)nc3ncnn23)CC1` [I, 5-chloro-7-(4-methylpiperidin-1-yl)-6-(2,4,6-trifluorophenyl)-[1,2,4]triazolo[1,5-a]pyrimidine] here?
**A.** 30%

**Q.** And the “Efficacy in % of the untreated control” value (16 ppm in the spray liquor)?
**A.** 65%

**Q.** Which “Efficacy in % of the untreated control” value (4 ppm in the spray liquor) does the source give for `CN(C)S(=O)(=O)N(SC(F)(Cl)Cl)c1ccccc1` [II (dichlofluanid), N-dichlorofluoromethylthio-N′,N′-dimethyl-N-phenylsulfonamide] here?
**A.** 0%

**Q.** What about the “Efficacy in % of the untreated control” value (16 ppm in the spray liquor) of the same molecule?
**A.** 0%
